Where “and” joins values, the source holds several entries; their conditions need not be identical. Equal entries are not always repeated.
Columns and labels:
[1] = target: BCL-2 (binding to BAK peptide) (Homo sapiens, UniProt P10415); experiment: SPR (Biacore) solution inhibition assay, BCL-2 binding to immobilized BAK peptide; conditions: biotinylated BAK peptide surface, 56 nM BCL-2, 25° C.; range = high and low IC50 values from multiple experiments; read-out: BCL2_SPR IC50 BAK
Procedure, shortened: (§1)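 Compounds (6-point threefold series, 16 μM to 0.004 nM) preincubated 1 h with 56 nM BCL-2, then injected 60 s over biotinylated peptide captured on streptavidin chips at 25° C. Running buffer: 10 mM HEPES pH 7.4, 150 mM NaCl, 1.25 mM DTT, 3% DMSO, 0.05% polysorbate 20. % inhibition versus BCL-2-only binding gave IC50.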

[2] = target: BCL-2 (binding to BAD peptide) (Homo sapiens, UniProt P10415); experiment: SPR (Biacore) solution inhibition assay, BCL-2 binding to immobilized BAD peptide; conditions: biotinylated BAD peptide surface, 56 nM BCL-2, 25° C.; range = high and low IC50 values from multiple experiments; read-out: BCL2_SPR IC50 BAD
BCL-2 (binding to BAD peptide), sequence (P10415 whole entry): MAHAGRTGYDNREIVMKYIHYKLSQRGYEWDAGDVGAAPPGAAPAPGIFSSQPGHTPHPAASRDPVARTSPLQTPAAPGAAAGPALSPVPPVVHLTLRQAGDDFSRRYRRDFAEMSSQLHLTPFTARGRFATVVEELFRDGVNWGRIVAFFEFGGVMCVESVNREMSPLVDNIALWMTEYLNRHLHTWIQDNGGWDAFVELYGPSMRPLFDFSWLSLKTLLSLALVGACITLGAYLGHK
Procedure, shortened: as §1

BCL-2 (binding to BAK peptide), sequence (P10415 whole entry): as above

Structure (SMILES) | IC50 [1] | IC50 [2]
CCCCN(CCCC)C(=O)c1cc(C)n(-c2ccc(NC(=O)c3ccc(NS(=O)(=O)Cc4ccccc4)cc3)cc2C(=O)N2Cc3ccccc3C[C@H]2CO)n1 [Example 143] | 426 to 594 nM | 455 to 539 nM
CCCCN(CCCC)C(=O)c1cc(C)n(-c2ccc(NC(=O)c3csc(-c4cccc(Cl)c4Cl)n3)cc2C(=O)N2Cc3ccccc3C[C@H]2CO)n1 [Example 144] | 1260 to 1350 nM | 2630 to 2750 nM
CCCCN(CCCC)C(=O)c1cc(C)n(-c2ccc(NC(=O)c3cc(F)ccc3C(F)(F)F)cc2C(=O)N2Cc3ccccc3C[C@H]2CO)n1 [Example 145] | 1250 to 1270 nM and 964 to 1220 nM | 1670 nM and 1170 to 1220 nM
CCCCN(CCCC)C(=O)c1cc(C)n(-c2ccc(NC(=O)c3ccccc3Nc3ccccc3[N+](=O)[O-])cc2C(=O)N2Cc3ccccc3C[C@H]2CO)n1 [Example 146] | 396 to 471 nM | 467 to 500 nM
CCCCN(CCCC)C(=O)c1cc(C)n(-c2ccc(NC(=O)c3ccc4c(c3)nnn4C(C)C)cc2C(=O)N2Cc3ccccc3C[C@H]2CO)n1 [Example 147] | 298 to 315 nM | 306 to 381 nM
CCCCN(CCCC)C(=O)c1cc(C)n(-c2ccc(NC(=O)c3[nH]c4ccccc4c3-c3ccccc3)cc2C(=O)N2Cc3ccccc3C[C@H]2CO)n1 [Example 148] | 595 to 598 nM | 619 to 638 nM
CCCCN(CCCC)C(=O)c1cc(C)n(-c2ccc(NC(=O)c3cc4c(OC)c(OC)ccc4[nH]3)cc2C(=O)N2Cc3ccccc3C[C@H]2CO)n1 [Example 149] | 161 to 162 nM | 142 to 164 nM
CCCCN(CCCC)C(=O)c1cc(C)n(-c2ccc(NC(=O)c3cccnc3Nc3cccc(C(F)(F)F)c3)cc2C(=O)N2Cc3ccccc3C[C@H]2CO)n1 [Example 150] | 597 to 598 nM | 431 to 444 nM
CCCCN(CCCC)C(=O)c1cc(C)n(-c2ccc(NC(=O)CS(=O)(=O)c3ccccc3)cc2C(=O)N2Cc3ccccc3C[C@H]2CO)n1 [Example 152] | 339 to 358 nM | 348 to 392 nM
CCCCN(CCCC)C(=O)c1cc(C)n(-c2ccc(NC(=O)c3cc(OC)ccc3O)cc2C(=O)N2Cc3ccccc3C[C@H]2CO)n1 [Example 153] | 393 to 448 nM | 438 to 511 nM
CCCCN(CCCC)C(=O)c1cc(C)n(-c2ccc(NC(=O)c3ccc(SC(F)(F)F)cc3)cc2C(=O)N2Cc3ccccc3C[C@H]2CO)n1 [Example 154] | 2380 to 4330 nM | 5790 to 6250 nM
CCCCN(CCCC)C(=O)c1cc(C)n(-c2ccc(NC(=O)c3cn(C)nc3C(F)(F)F)cc2C(=O)N2Cc3ccccc3C[C@H]2CO)n1 [Example 155] | 729 to 935 nM | 778 to 972 nM
CCCCN(CCCC)C(=O)c1cc(C)n(-c2ccc(NC(=O)c3ccc(-c4ccc(OC)cc4)[nH]c3=O)cc2C(=O)N2Cc3ccccc3C[C@H]2CO)n1 [Example 156] | 1830 to 2380 nM | 1740 to 1800 nM
CCCCN(CCCC)C(=O)c1cc(C)n(-c2ccc(NC(=O)Cc3ccc(O)cc3)cc2C(=O)N2Cc3ccccc3C[C@H]2CO)n1 [Example 157] | 64.7 to 75.3 nM | 80.3 to 93.4 nM
CCCCN(CCCC)C(=O)c1cc(C)n(-c2ccc(NC(=O)Cc3ccc(F)cc3Cl)cc2C(=O)N2Cc3ccccc3C[C@H]2CO)n1 [Example 158] | 436 to 500 nM | 537 to 546 nM
CCCCN(CCCC)C(=O)c1cc(C)n(-c2ccc(NC(=O)Cc3c(F)cccc3Cl)cc2C(=O)N2Cc3ccccc3C[C@H]2CO)n1 [Example 159] | 409 to 430 nM | 574 to 596 nM
CCCCN(CCCC)C(=O)c1cc(C)n(-c2ccc(NC(=O)Cc3cccc(C#N)c3)cc2C(=O)N2Cc3ccccc3C[C@H]2CO)n1 [Example 160] | 180 to 193 nM | 229 to 238 nM
CCCCN(CCCC)C(=O)c1cc(C)n(-c2ccc(NC(=O)C(C)c3noc4ccccc34)cc2C(=O)N2Cc3ccccc3C[C@H]2CO)n1 (some centres unmarked) [Example 161] | 1330 to 1560 nM | 3070 to 3910 nM
CCCCN(CCCC)C(=O)c1cc(C)n(-c2ccc(NC(=O)[C@H](OC)c3ccc4ccccc4c3)cc2C(=O)N2Cc3ccccc3C[C@H]2CO)n1 [Example 162] | 36.1 to 36.8 nM | 43.5 to 44.3 nM
